Test results published in patent publication US11427567B2, “Imidazolyl pyrimidinylamine compounds as CDK2 inhibitors” (Incyte Corporation, priority 2019, dated 2022).

target: CDK2/Cyclin E1 (Homo sapiens (Human), UniProt P24941); assay: CDK2/Cyclin E1 HTRF enzyme activity assay (Example A); type: biochemical; details: 1 mM ATP
Experimental: Assays were conducted in white 384-well polystyrene plates in a final reaction volume of 8 μL. […] HTRF signals were read after 1 hour at room temperature on a PHERAstar FS plate reader (BMG Labtech). Data was analyzed with IDBS XLFit and GraphPad Prism 5.0 software using a three or four parameter dose response curve to determine IC50 for each compound.

Row | SMILES | IC50 [nM]
1 | CC(C)NCc1cc(F)c(-n2cnc(-c3nc(NC4CCN(S(C)(=O)=O)CC4)ncc3C(F)(F)F)c2)c(F)c1 [Example 348] | ≤ 50
2 | COc1ccc(-n2cnc(-c3nc(NC4CCN(S(C)(=O)=O)CC4)ncc3C(F)(F)F)c2)c(C#N)n1 [Example 39, 6-Methoxy-3-(4-(2-((1-(methylsulfonyl)piperidin-4-yl)amino)-5-(trifluoromethyl)pyrimidin-4-yl)-1H-imidazol-1-yl)picolinonitrile] | ≤ 50
3 | C[C@@H]1CN(S(=O)(=O)c2cn(C)cn2)CC[C@@H]1Nc1ncc(C(F)(F)F)c(-c2cn(-c3cccc(C#N)c3Cl)cn2)n1 [Example 155, 2-Chloro-3-(4-(2-(((3R,4S)-3-methyl-1-((1-methyl-1H-imidazol-4-yl)sulfonyl)piperidin-4-yl)amino)-5-(trifluoromethyl)pyrimidin-4-yl)-1H-imidazol-1-yl)benzonitrile] | ≤ 50
4 | CCN(C)Cc1ccc(-n2cnc(-c3nc(NC4CCN(S(C)(=O)=O)CC4)ncc3C(F)(F)F)c2)c(Cl)c1 [Example 192] | ≤ 50
5 | CS(=O)(=O)N1CCC(Nc2ncc(C(F)(F)F)c(-c3cn(-c4ccc(CN5CC6CCC5CC6)cc4Cl)cn3)n2)CC1 [Example 179, 4-(1-(4-((2-Azabicyclo[2.2.2]octan-2-yl)methyl)-2-chlorophenyl)-1H-imidazol-4-yl)-N-(1-(methylsulfonyl)piperidin-4-yl)-5-(trifluoromethyl)pyrimidin-2-amine] | ≤ 50
6 | CNCc1ccc(-n2cnc(-c3nc(NC4CCN(S(C)(=O)=O)CC4)ncc3C(F)(F)F)c2)c(C)c1 [Example 272, 4-(1-(2-Methyl-4-((methylamino)methyl)phenyl)-1H-imidazol-4-yl)-N-(1-(methylsulfonyl)piperidin-4-yl)-5-(trifluoromethyl)pyrimidin-2-amine] | ≤ 50
7 | CNCc1ccc(-n2cnc(-c3nc(NC4CCN(S(C)(=O)=O)CC4)ncc3C(F)(F)F)c2)c(C#N)c1 [Example 249, 5-((Methylamino)methyl)-2-(4-(2-((1-(methylsulfonyl)piperidin-4-yl)amino)-5-(trifluoromethyl)pyrimidin-4-yl)-1H-imidazol-1-yl)benzonitrile] | ≤ 50
8 | CS(=O)(=O)N1CCC(Nc2ncc(C(F)(F)F)c(-c3cn(-c4ccc(CO)cc4Cl)cn3)n2)CC1 [Example 231, (3-Chloro-4-(4-(2-((1-(methylsulfonyl)piperidin-4-yl)amino)-5-(trifluoromethyl)pyrimidin-4-yl)-1H-imidazol-1-yl)phenyl)methanol] | ≤ 50
9 | CN1CCN(Cc2ccc(-n3cnc(-c4nc(NC5CCN(S(C)(=O)=O)CC5)ncc4C(F)(F)F)c3)c(Cl)c2)C(=O)C1 [Example 451, 1-(3-Chloro-4-(4-(2-((1-(methylsulfonyl)piperidin-4-yl)amino)-5-(trifluoromethyl)pyrimidin-4-yl)-1H-imidazol-1-yl)benzyl)-4-methylpiperazin-2-one] | ≤ 50
10 | COC1CN(Cc2ccc(-n3cnc(-c4nc(NC5CCN(S(C)(=O)=O)CC5)ncc4C(F)(F)F)c3)c(Cl)c2)C1 [Example 195, 4-(1-(2-Chloro-4-((3-methoxyazetidin-1-yl)methyl)phenyl)-1H-imidazol-4-yl)-N-(1-(methylsulfonyl)-piperidin-4-yl)-5-(trifluoromethyl)-pyrimidin-2-amine] | ≤ 50
11 | CS(=O)(=O)N1CCC(Nc2ncc(C(F)(F)F)c(-c3cn(-c4cc(F)ccc4C#N)cn3)n2)CC1 [Example 57, 4-Fluoro-2-(4-(2-((1-(methylsulfonyl)piperidin-4-yl)amino)-5-(trifluoromethyl)pyrimidin-4-yl)-1H-imidazol-1-yl)benzonitrile] | ≤ 50
12 | CN(C)CCN(C)c1ccc(-n2cnc(-c3nc(NC4CCN(S(C)(=O)=O)CC4)ncc3C(F)(F)F)c2)c(Cl)c1 [Example 149, N^1-(3-Chloro-4-(4-(2-((1-(methyl-sulfonyl)piperidin-4-yl)amino)-5-(trifluoromethyl)-pyrimidin-4-yl)-1H-imidazol-1-yl)-phenyl)-N1,N2,N2-trimethylethane-1,2-diamine] | ≤ 50

Further lines, results first:

Row | IC50 [nM] | SMILES
13 | ≤ 50 | Cc1nc(-c2nc(NC3CCN(S(C)(=O)=O)CC3)ncc2C#N)cn1-c1ccc(CN(C)C)cc1Cl [Example 288, 4-(1-(2-Chloro-4-((dimethylamino)methyl)phenyl)-2-methyl-1H-imidazol-4-yl)-2-((1-(methylsulfonyl)piperidin-4-yl)amino)pyrimidine-5-carbonitrile]
14 | ≤ 50 | CS(=O)(=O)N1CCC(Nc2ncc(C(F)(F)F)c(-c3cn(-c4ccc(Cn5cncn5)cc4Cl)cn3)n2)CC1 [Example 240, 4-(1-(4-((1H-1,2,4-Triazol-1-yl)methyl)-2-chlorophenyl)-1H-imidazol-4-yl)-N-(1-(methylsulfonyl)piperidin-4-yl)-5-(trifluoromethyl)pyrimidin-2-amine]
15 | ≤ 50 | Cc1nc(-c2nc(NC3CCN(S(C)(=O)=O)CC3)ncc2C(F)(F)F)cn1-c1ccc(OC[C@H]2CCCN2C)cc1F [Example 426, (R)-4-(1-(2-Fluoro-4-((1-methylpyrrolidin-2-yl)methoxy)phenyl)-2-methyl-1H-imidazol-4-yl)-N-(1-(methylsulfonyl)piperidin-4-yl)-5-(trifluoromethyl)pyrimidin-2-amine]
16 | ≤ 50 | CS(=O)(=O)N1CC[C@H](Nc2ncc(C(F)(F)F)c(-c3cn(-c4ccc(CN5CCC5)cc4Cl)cn3)n2)[C@H](F)C1 [Example 184, 4-(1-(4-(Azetidin-1-ylmethyl)-2-chlorophenyl)-1H-imidazol-4-yl)-N-((3R,4S)-3-fluoro-1-(methylsulfonyl)piperidin-4-yl)-5-(trifluoromethyl)pyrimidin-2-amine]
17 | ≤ 50 | Cc1nc(-c2nc(NC3CCN(S(C)(=O)=O)CC3)ncc2C(F)(F)F)cn1-c1ccc(N2CC3(CCN(C)CC3)C2)cc1F [Example 104, 4-(1-(2-Fluoro-4-(7-methyl-2,7-diazaspiro[3.5]-nonan-2-yl)phenyl)-2-methyl-1H-imidazol-4-yl)-N-(1-(methylsulfonyl)-piperidin-4-yl)-5-(trifluoromethyl)-pyrimidin-2-amine]
18 | ≤ 50 | COc1nccc(-n2cnc(-c3nc(NC4CCN(S(C)(=O)=O)CC4)ncc3C(F)(F)F)c2)c1C [Example 312, 4-(1-(2-Methoxy-3-methylpyridin-4-yl)-1H-imidazol-4-yl)-N-(1-(methylsulfonyl)piperidin-4-yl)-5-(trifluoromethyl)pyrimidin-2-amine]
19 | ≤ 50 | Cc1nnn(C)c1-c1ccc(-n2cnc(-c3nc(NC4CCN(S(C)(=O)=O)CC4)ncc3C(F)(F)F)c2)c(Cl)c1 [Example 120, 4-(1-(2-Chloro-4-(1,4-dimethyl-1H-1,2,3-triazol-5-yl)phenyl)-1H-imidazol-4-yl)-N-(1-(methylsulfonyl)-piperidin-4-yl)-5-(trifluoromethyl)-pyrimidin-2-amine]
20 | ≤ 50 | CNC(C)c1ccc(-n2cnc(-c3nc(NC4CCN(S(C)(=O)=O)CC4)ncc3C(F)(F)F)c2)c(Cl)c1 (single isomer, unassigned) [Example 275, 4-(1-(2-Chloro-4-(1-(methylamino)ethyl)phenyl)-1H-imidazol-4-yl)-N-(1-(methylsulfonyl)piperidin-4-yl)-5-(trifluoromethyl)pyrimidin-2-amine]
21 | ≤ 50 | Cn1c(Cl)nc(-c2nc(NC3CCN(S(C)(=O)=O)CC3)ncc2C(F)(F)F)c1Cl [Example 12, 4-(2,5-Dichloro-1-methyl-1H-imidazol-4-yl)-N-(1-(methylsulfonyl)piperidin-4-yl)-5-(trifluoromethyl)pyrimidin-2-amine]
22 | ≤ 50 | CN1CCN(Cc2cc(F)c(-n3cnc(-c4nc(N[C@H]5CCN(S(C)(=O)=O)C[C@H]5F)ncc4C(F)(F)F)c3)c(F)c2)CC1 [Example 443, 4-(1-(2,6-Difluoro-4((4-methylpiperazin-1-yl)methyl)phenyl)-1H-imidazol-4-yl)-N-((3R,4S)-3-fluoro-1-(methylsulfonyl)piperidin-4-yl)-5-(trifluoromethyl)pyrimidin-2-amine]
23 | ≤ 50 | CCNCc1ccc(-n2cnc(-c3nc(NC4CCN(S(C)(=O)=O)CC4)ncc3C(F)(F)F)c2)c(C#N)c1 [Example 341, 5-((Ethylamino)methyl)-2-(4-(2-((1-(methylsulfonyl)piperidin-yl)amino)-5-(trifluoromethyl)pyrimidin-4-yl)-1H-imidazol-1-yl)benzonitrile]
24 | ≤ 50 | CC(C)(O)Cn1cnc(-c2nc(N[C@H]3CCN(S(C)(=O)=O)C[C@H]3F)ncc2C(F)(F)F)c1 [Example 325, 1-(4-(2-(((3R,4S)-3-Fluoro-1-(methylsulfonyl)piperidin-4-yl)amino)-5-(trifluoromethyl)pyrimidin-4-yl)-1H-imidazol-1-yl)-2-methylpropan-2-ol]
25 | ≤ 50 | CN(C)CCOc1ccc(-n2cnc(-c3nc(NC4CCN(S(C)(=O)=O)CC4)ncc3C(F)(F)F)c2)c(C#N)n1 [Example 40, 6-(2-(Dimethylamino)ethoxy)-3-(4-(2-((1-(methylsulfonyl)piperidin-4-yl)amino)-5-(trifluoromethyl)pyrimidin-4-yl)-1H-imidazol-1-yl)picolinonitrile]
26 | ≤ 50 | CN1CCN(CCc2ccc(-n3cnc(-c4nc(NC5CCN(S(C)(=O)=O)CC5)ncc4C(F)(F)F)c3)c(C#N)c2)CC1 [Example 457, 5-(2-(4-Methylpiperazin-1-yl)ethyl)-2-(4-(2-((1-(methylsulfonyl)piperidin-4-yl)amino)-5-(trifluoromethyl)pyrimidin-4-yl)-1H-imidazol-1-yl)benzonitrile]
27 | ≤ 50 | CN(C)CCOc1ccc(-n2cnc(-c3nc(N[C@H]4CCN(S(C)(=O)=O)C[C@H]4F)ncc3C(F)(F)F)c2)c(C#N)n1 [Example 53, 6-(2-(Dimethylamino)ethoxy)-3-(4-(2-(((3R,4S)-3-fluoro-1-(methylsulfonyl)piperidin-4-yl)amino)-5-(trifluoromethyl)pyrimidin-4-yl)-1H-imidazol-1-yl)picolinonitrile]
